Laboratory results from patent US20170348337A1, “MULTIFUNCTIONAL MEMBRANE-ACTIVE AMINOGLYCOSIDE-PEPTIDE CONJUGATES” (priority 2014, published 2017).
Values after ≈ are worked out from the molar mass of the structure shown. “Also recorded” adds a separate entry of the source.

Legend:
P. aeruginosa = experiment: antimicrobial activity (MIC) of P-L-A conjugates; type: cell-based
E. coli Dh5α persisters = experiment: persister cell plate killing assay; type: cell-based, Escherichia coli
Method: Procedure for preparing S. aureus SA113 and E. coli Dh5α persister cells were based on previous protocols. Cells from freshly streaked agar plates were inoculated in 1 mL TSB and incubated 16 h at 37° C. in a shaker incubator to obtain stationary phase cultures. Non-persister cells were eliminated by adding ampicillin to a final concentration of 100 μg/mL, followed by 3 h incubation at 37° C.
E. coli cells were pelleted (5000 rpm for 5 min), washed in M9 minimal media and resuspended in M9 minimal media to a final bacteria stock solution of 5×10^7 CFU/mL. 20 μL E. coli suspension was introduced into 180 μL M9 media containing various concentrations of antibiotic (Pentobra, tobramycin) in 96 well plates for a total of 10^6 CFU/well. The plates were sealed with parafilm, loaded onto microplate shakers and placed in a 37° C. incubator for 1.5 h. After incubation, 10-fold serial dilutions were made with M9 media. Half of each dilution (100 μL) was spotted onto LB agar plates and incubated overnight at 37° C. to yield visible colonies. The E. coli persister assays were performed in quadruplicate.
The bactericidal effects of Pentobra against persistent bacteria were investigated with plate killing assays. […]

[1] = system: IL-6, IL-8, TNF-α and IL-12p40 in human monocytes; experiment: cytokine ELISA in P. acnes-activated monocytes; type: cell-based; details: 24 hrs co-treatment
Method: Peripheral blood mononuclear cells (PBMCs) were isolated from whole blood of normal healthy donors as approved by the Institutional Review Board at UCLA using Ficoll-Paque gradients (GE Healthcare, Piscataway, N.J.) and plated onto six-well tissue culture plates (20×10^6-30×10^6 per well) for 2 hours in RPMI 1640 medium (Invitrogen Life Technologies, Carlsbad, Calif.) supplemented with 1% fetal calf serum (Omega Scientific, Tarzana, Calif.). Nonadherent cells were removed by rigorously washing three times with RPMI. Adherent monocytes were stimulated (co-treated) with media or P. acnes in the presence of tobramycin or Pentobra in 10% fetal calf serum. P. acnes was used at an MOI of 0.5 and cells were cultured for 24 hours at 37° C.
IL-6, IL-8, Tumor necrosis factor alpha (TNF-α) and IL-12p40 levels in culture supernatants were measured by ELISA following the manufacturer's recommendations (Invitrogen). Samples were assayed in triplicates. Results are expressed as mean±SD of at least three independent experiments, with monocytes obtained from three independent donors.
Monocytes were cultured and evaluated for cytokine and chemokine expression by ELISA and real time PCR after 24 hrs.

[2] = system: P. acnes in comedone extracts; experiment: microcomedone assay (human comedone extracts); type: cell-based, Propionibacterium acnes; details: similar drug concentrations (FIG. 11C)
[3] = synchrotron small angle X-ray scattering (SAXS) of model membranes; details: DOPE/DOPS=80/20; Pentobra to lipid 1/80; tobramycin to lipid 1/20 or 1/40
Method: Briefly, DOPE and DOPS lyophilized lipids from Avanti Polar lipids were used without further purification. SUVs were prepared by sonication. Stock solutions of DOPE and DOPS were prepared in chloroform at ˜20 mg/g. Mixtures of these lipids were prepared at molar ratios, so DOPE/DOPS=80/20 corresponded to a 4:1 lipid ratio. Chloroform was evaporated under N2, and the mixtures were dried further by overnight desiccation under vacuum. The dried lipids were resuspended the next day in 100 mM NaCl. Solutions were incubated at 37° C. for 18 h and then sonicated until clear. SUVs were obtained by extrusion (0.2 μm pore Nucleopore filter).
Pentobra and tobramycin stock solutions were prepared by dissolving the molecules in 100 mM NaCl. Lipids were thoroughly mixed with Pentobra/tobramycin at specific molecule to lipid ratios (P/L) in 100 mM NaCl. Sample solutions were hermetically sealed in quartz-glass capillaries (Hilgenberg GmbH, Mark-tubes, code no: 4017515). Synchrotron SAXS experiments were conducted at the Stanford Synchrotron Radiation Laboratory (BL 4-2). Monochromatic X-rays with 9 keV energy were used. Scattering was collected using a Rayonix MX225-HE detector (pixel size 73.2 μm). Samples were also measured at the California NanoSystems Institute (CNSI) at UCLA. […] Identical samples were prepared and measured at different times and multiple sources to ensure consistency between samples. […]

[4] = system: bioluminescent Staphylococcus aureus; experiment: in vivo murine implantation (implant infection) model; set-up: species or system lysEGFP mice; details: PMMA-coated titanium disks, subcutaneous; throughout 5 days; p<0.05
Method: Methods: Survival surgery was performed in which circular orthopedic-grade titanium disks were implanted subcutaneously on the backs of 25 lysEGFP mice. Disks were coated in poly-methyl-methacrylate (PMMA) cement mixed with either Pentobra, Tobramycin, or no antibiotic (control). The disks were inoculated with 1×10^7 colony-forming units (CFU) of bioluminescent Staphylococcus aureus. Bacterial burden and neutrophil inflammation were followed via bioluminescent and fluorescent imaging, respectively, on post-operative days (POD) 0, 1, 3, and 5. Implants and surrounding tissue were subsequently removed and cultured. Statistical assessment of data was performed via ANOVA analysis.

NC[C@H]1O[C@H](O[C@H]2[C@H](O)[C@@H](O[C@H]3O[C@H](CO)[C@@H](O)[C@H](N)[C@H]3O)[C@H](N)C[C@@H]2N)[C@H](N)C[C@@H]1O [tobramycin]
MIC (P. aeruginosa; Pseudomonas aeruginosa, read-out: MIC (μM) P. aeruginosa (stationary)): 6.25 µM (≈ 2.92 µg/mL)
MIC (μM) P. aeruginosa (mid-log) (P. aeruginosa; mid-log): 0.78-3.12 μM
killing activity against persister cells (E. coli Dh5α persisters; 1.5 h, entire range of tested concentrations): poor activity
activity against persisters at high concentration (E. coli Dh5α persisters; >50 μM): ineffective
change in IL-6, IL-8, TNF-α and IL-12p40 cytokine production [1]: no significant change
reduction in CFU [2]: less than ten
induced membrane curvature / phase (negative Gaussian curvature, NGC) [3]: induced NGC was not observed; also recorded: did not induce NGC or negative mean curvature
bacterial bioluminescent signal compared to control group [4]: significantly lower bacterial bioluminescent signal
